Measured values as given in patent US10533010B2, “Substituted indole Mcl-1 inhibitors” (Vanderbilt University, priority 2014, dated 2020).

Target: recombinant Mcl-1 (residues 172-327) (Homo sapiens (Human), UniProt Q07820)
Test: Fluorescence polarization anisotropy competition assay (FITC-Bak or FITC-Bim BH3 peptide) with Mcl-1
Format: binding
Conditions: Table 2; Ki bins given in nM; FITC-Bak or FITC-Bim peptide competition; Ki converted from IC50; read-out: Ki for Inhibition of Mcl-1

recombinant Mcl-1 (residues 172-327), sequence (Q07820 172-327): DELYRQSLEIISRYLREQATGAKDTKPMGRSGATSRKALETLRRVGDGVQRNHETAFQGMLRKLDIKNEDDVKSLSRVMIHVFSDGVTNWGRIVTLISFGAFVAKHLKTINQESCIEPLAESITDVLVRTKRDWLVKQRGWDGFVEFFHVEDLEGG

SMILES | Ki
Cc1cc(OCCCc2c3n(c4c(-c5c(C)nn(C)c5C)cccc24)CCCN(Cc2cc(Br)cc(C(=O)O)c2)C3=O)cc(C)c1Cl [I-296, 3-bromo-5-((11-(3-(4-chloro-3,5-dimethylphenoxy)propyl)-1-oxo-7-(1,3,5-trimethyl-1H-pyrazol-4-yl)-4,5-dihydro-1H-[1,4]diazepino[1,2-a]indol-2(3H)-yl)methyl)benzoic acid] | 51 to 100 nM
Cc1cc(OCCCc2c3n(c4c(-c5c(C)nn(C)c5C)cc(Cl)cc24)CCCN(c2cccc(C(=O)O)c2)C3=O)cc(C)c1Cl [I-246, 3-(9-chloro-11-(3-(4-chloro-3,5-dimethylphenoxy)propyl)-1-oxo-7-(1,3,5-trimethyl-1H-pyrazol-4-yl)-4,5-dihydro-1H-[1,4]diazepino[1,2-a]indol-2(3H)-yl)benzoic acid] | 101 to 299 nM
Cc1cc(OCCCc2c3n(c4c(-c5c(C)nn(C)c5C)c(Cl)ccc24)CC(C)CN(Cc2ccc(C(=O)O)cc2)C3=O)cc(C)c1Cl (stereo not drawn) [I-133, 4-((8-chloro-11-(3-(4-chloro-3,5-dimethylphenoxy)propyl)-4-methyl-1-oxo-7-(1,3,5-trimethyl-1H-pyrazol-4-yl)-4,5-dihydro-1H-[1,4]diazepino[1,2-a]indol-2(3H)-yl)methyl)benzoic acid] | < 50 nM
Cc1cc(OCCCc2c3n(c4c(-c5c(C)nn(C)c5C)c(Cl)ccc24)CC(C)CN(Cc2ccc(C(=O)O)cn2)C3=O)cc(C)c1Cl (stereo not drawn) [I-134, 6-((8-chloro-11-(3-(4-chloro-3,5-dimethylphenoxy)propyl)-4-methyl-1-oxo-7-(1,3,5-trimethyl-1H-pyrazol-4-yl)-4,5-dihydro-1H-[1,4]diazepino[1,2-a]indol-2(3H)-yl)methyl)nicotinic acid] | < 50 nM
Cc1cc(OCCCc2c(C(=O)Nc3cccc(C(=O)O)c3)[nH]c3c(-c4cccnc4C)cccc23)cc(C)c1Cl [I-36, 3-(3-(3-(4-chloro-3,5-dimethylphenoxy)propyl)-7-(2-methylpyridin-3-yl)-1H-indole-2-carboxamido)benzoic acid] | < 50 nM
Cc1cc(OCCCc2c3n(c4c(-c5c(C)nn(C)c5C)c(Cl)ccc24)CCCN(Cc2cc(C(=O)O)cc(N(C(=O)CC(C)C)C(=O)CC(C)C)c2)C3=O)cc(C)c1Cl [I-329, 3-((8-chloro-11-(3-(4-chloro-3,5-dimethylphenoxy)propyl)-1-oxo-7-(1,3,5-trimethyl-1H-pyrazol-4-yl)-4,5-dihydro-1H-[1,4]diazepino[1,2-a]indol-2(3H)-yl)methyl)-5-(3-methyl-N-(3-methylbutanoyl)butanamido)benzoic acid] | < 50 nM
Cc1cc(OCCCc2c(C(=O)NCCS(=O)(=O)NC(=O)Cc3ccc(Br)cc3)[nH]c3ccccc23)cc(C)c1Cl [I-53, N-(2-(N-(2-(4-bromophenyl)acetyl)sulfamoyl)ethyl)-3-(3-(4-chloro-3,5-dimethylphenoxy)propyl)-1H-indole-2-carboxamide] | 301 to 500 nM
Cc1cc(OCCCc2c(C(=O)NCC(=O)N[C@@H](CC(C)C)C(=O)O)[nH]c3c(-c4c(C)nn(C)c4C)cccc23)cc(C)c1Cl [I-292, (3-(3-(4-chloro-3,5-dimethylphenoxy)propyl)-7-(1,3,5-trimethyl-1H-pyrazol-4-yl)-1H-indole-2-carbonyl)glycyl-L-leucine] | < 50 nM
Cc1cc(OCCCc2c(C(=O)NCc3cccc(C(=O)NS(=O)(=O)c4ccc([N+](=O)[O-])cc4)c3)[nH]c3c(-c4c(C)n[nH]c4C)cccc23)cc(C)c1Cl [I-27, 3-(3-(4-chloro-3,5-dimethylphenoxy)propyl)-7-(3,5-dimethyl-1H-pyrazol-4-yl)-N-(3-(((4-nitrophenyl)sulfonyl)carbamoyl)benzyl)-1H-indole-2-carboxamide] | < 50 nM
Cc1cc(OCCCc2c(C(=O)Nc3cc[nH]n3)[nH]c3c(-c4c(C)nn(C)c4C)cccc23)cc(C)c1Cl [I-313, 3-(3-(4-chloro-3,5-dimethylphenoxy)propyl)-N-(1H-pyrazol-3-yl)-7-(1,3,5-trimethyl-1H-pyrazol-4-yl)-1H-indole-2-carboxamide] | 501 to 999 nM
Cc1cc(OCCCc2c3n(c4c(-c5c(C)nn(C)c5C)cccc24)CCCN(Cc2ccc(-c4nnn[nH]4)cc2)C3=O)cc(C)c1Cl [I-88, 2-(4-(1H-tetrazol-5-yl)benzyl)-11-(3-(4-chloro-3,5-dimethylphenoxy)propyl)-7-(1,3,5-trimethyl-1H-pyrazol-4-yl)-2,3,4,5-tetrahydro-1H-[1,4]diazepino[1,2-a]indol-1-one] | < 50 nM
Cc1cc(OCCCc2c3n(c4c(-c5c(C)nn(C)c5C)cccc24)CCCN(Cc2cc(C(=O)O)n(Cc4ccccc4)c2)C3=O)cc(C)c1Cl [I-77, 1-benzyl-4-((1-(3-(4-chloro-3,5-dimethylphenoxy)propyl)-1-oxo-7-(1,3,5-trimethyl-1H-pyrazol-4-yl)-4,5-dihydro-1H-[1,4]diazepino[1,2-a]indol-2(3H)-yl)methyl)-1H-pyrrole-2-carboxylic acid] | 51 to 100 nM
Cc1cc(OCCCc2c(C(=O)NCc3cc(C(=O)O)cc(NCCC(C)C)n3)[nH]c3c(-c4c(C)nn(C)c4C)c(Cl)ccc23)cc(C)c1Cl [I-283, 2-((6-chloro-3-(3-(4-chloro-3,5-dimethylphenoxy)propyl)-7-(1,3,5-trimethyl-1H-pyrazol-4-yl)-1H-indole-2-carboxamido)methyl)-6-(isopentylamino)isonicotinic acid] | < 50 nM
Cc1cc(OCCCc2c(C(=O)NCc3cccn3CC(=O)O)[nH]c3c(-c4c(C)nn(C)c4C)cccc23)cc(C)c1Cl [I-89, 2-(2-((3-(3-(4-chloro-3,5-dimethylphenoxy)propyl)-7-(1,3,5-trimethyl-1H-pyrazol-4-yl)-1H-indole-2-carboxamido)methyl)-1H-pyrrol-1-yl)acetic acid] | < 50 nM
Cc1cc(OCCCc2c3n(c4c(-c5c(C)nn(C)c5C)c(Cl)ccc24)CCCN(Cc2cc(C(=O)O)cc(OCCC(C)C)n2)C3=O)cc(C)c1Cl [I-302, 2-((8-chloro-11-(3-(4-chloro-3,5-dimethylphenoxy)propyl)-1-oxo-7-(1,3,5-trimethyl-1H-pyrazol-4-yl)-4,5-dihydro-1H-[1,4]diazepino[1,2-a]indol-2(3H)-yl)methyl)-6-(isopentyloxy)isonicotinic acid] | < 50 nM
Cc1cc(OCCCc2c(C(=O)NCc3cc(C(=O)O)n(Cc4ccccc4)c3)[nH]c3c(-c4c(C)nn(C)c4C)cccc23)cc(C)c1Cl [I-75, 1-benzyl-4-((3-(3-(4-chloro-3,5-dimethylphenoxy)propyl)-7-(1,3,5-trimethyl-1H-pyrazol-4-yl)-1H-indole-2-carboxamido)methyl)-1H-pyrrole-2-carboxylic acid] | 51 to 100 nM
Cc1cc(OCCCc2c3n(c4c(-c5c(C)nn(C)c5C)c(Cl)ccc24)CCCN(Cc2cc(Br)cc(C(=O)O)c2)C3=O)cc(C)c1Cl [I-299, 3-bromo-5-((8-chloro-11-(3-(4-chloro-3,5-dimethylphenoxy)propyl)-1-oxo-7-(1,3,5-trimethyl-1H-pyrazol-4-yl)-4,5-dihydro-1H-[1,4]diazepino[1,2-a]indol-2(3H)-yl)methyl)benzoic acid] | < 50 nM
Cc1cc(OCCCc2c(C(=O)NCCC(=O)NS(=O)(=O)c3ccc(Oc4ccccc4)cc3)[nH]c3ccccc23)cc(C)c1Cl [I-17, 3-(3-(4-chloro-3,5-dimethylphenoxy)propyl)-N-(3-oxo-3-((4-phenoxyphenyl)sulfonamido)propyl)-1H-indole-2-carboxamide] | 101 to 299 nM
Cc1cc(OCCCc2c3n(c4c(-c5c(C)nn(C)c5C)c(Cl)ccc24)C(C)[C@@H](C)N(Cc2ccc(C(=O)O)cn2)C3=O)cc(C)c1Cl (stereo partly drawn) [I-146, 6-(((3R)-7-chloro-10-(3-(4-chloro-3,5-dimethylphenoxy)propyl)-3,4-dimethyl-1-oxo-6-(1,3,5-trimethyl-1H-pyrazol-4-yl)-3,4-dihydropyrazino[1,2-a]indol-2(1H)-yl)methyl)nicotinic acid] | < 50 nM

Same assay, conditions: Table 2; Ki bins given in μM; FITC-Bak or FITC-Bim peptide competition; Ki converted from IC50; read-out: Ki for Inhibition of Mcl-1

SMILES | Ki
CCOC(=O)CCNC(=O)c1[nH]c2ccccc2c1CCCOc1cc(C)c(Cl)c(C)c1 [I-10, ethyl 3-(3-(3-(4-chloro-3,5-dimethylphenoxy)propyl)-1H-indole-2-carboxamido)propanoate] | 10000 to 50000 nM
Cc1cc(OCCCc2c(C(=O)N3CCC(NC(=O)OC(C)(C)C)CC3)[nH]c3ccccc23)cc(C)c1Cl [I-48, tert-butyl (1-(3-(3-(4-chloro-3,5-dimethylphenoxy)propyl)-1H-indole-2-carbonyl)piperidin-4-yl)carbamate] | 1000 to 9990 nM
